Measurements published in patent US20250179049A1, “SALTS OF HETEROCYCLIC INHIBITORS OF MONOCARBOXYLATE TRANSPORTER 4 FOR THE TREATMENT OF DISEASE” (Vettore, LLC, priority 2022, published 2025).
Where a name gives a salt, the structure may show the parent alone.

Legend:
[1] = test system: bleomycin-induced lung fibrosis; assay: Bleomycin-induced lung fibrosis model; format: in vivo, mice; conditions: therapeutic mode; Compound 1 3 mg/kg BID; pirfenidone 100 mg/kg BID; nintedanib 50 mg/kg QD, oral gavage
Protocol: The reduction of lung fibrosis upon MCT4 inhibition is coupled with changes in serum metabolites that indicates turnover of extracellular matrix protein and increased fatty acid oxidation. […] The effects of Compound 1, alone or in combination with approved IPF drugs pirfenidone or nintedanib, were studied in the bleomycin-induced lung fibrosis model in therapeutic mode. Compound 1 was dosed at 3 mg/kg, BID; pirfenidone was dosed at 100 mg/kg, BID; and nintedanib was dosed at 50 mg/kg, QD, all via oral gavage.

[2] = Solid-state stability of API, 2 weeks storage; format: physicochemical
Protocol: Stability of the solid API was assessed after storage at the following conditions for 2 weeks: • 25° C./58% RH (closed) • 25° C./58% RH (open) • 40° C./75% RH (closed) • 40° C./75% RH (open) • 80° C./ambient RH (closed)

[3] = Dynamic vapor sorption (DVS); format: physicochemical; conditions: 25° C.
Text: The Form B tris salt is an off-white crystalline powder consisting of small particles. […] (ΔH=111 J/g).

[4] = Kinetic solubility in biorelevant media; format: physicochemical; conditions: for solubility at 1 h / solubility at 4 h / solubility at 24 h: thermodynamic from solid; for solubility at 1 h: t = 1 hour; for solubility at 4 h: t = 4 hours; for solubility at 24 h: t = 24 hours
[5] = fasted-state simulated gastric fluid (FaSSGF), fassgf or other biorelevant, FaSSGF pH 1.6, room temperature
[6] = fasted-state simulated intestinal fluid (FaSSIF), FaSSIF #2 pH 6.5, room temperature
[7] = fed-state simulated intestinal fluid (FeSSIF), FeSSIF #2 pH 5.8, room temperature

COC(=O)c1ccc2c(c1)NC(=O)/C2=C(\Nc1ccc(N(C)C(=O)CN2CCN(C)CC2)cc1)c1ccccc1 [nintedanib, reference compound]
Additive effect upon Ashcroft Score or αSMA quantitation when added to Compound 1 [1]: did not produce a statistically significant additive effect

Cc1ccc(=O)n(-c2ccccc2)c1 [pirfenidone, reference compound]
Additive effect upon Ashcroft Score or αSMA quantitation when added to Compound 1 [1]: did not produce a statistically significant additive effect

CC(C)(OCc1cc(-c2cccc(OC3CCC3)c2)n(-c2ccccc2N2CCC2)n1)C(=O)O [tris salt Form B]
Content ([2]; 25° C. - 58% RH (c), 2 weeks): 101.1 % w/w | Impurity RRT 0.60 ([2]; 25° C. - 58% RH (c), 2 weeks): <0.05 % area | Impurity RRT 0.86 ([2]; 25° C. - 58% RH (c), 2 weeks): <0.05 % area | Impurity RRT 0.89 ([2]; 25° C. - 58% RH (c), 2 weeks): <0.05 % area | Impurity RRT 0.92 ([2]; 25° C. - 58% RH (c), 2 weeks): 0.13 % area | Impurity RRT 1.21 ([2]; 25° C. - 58% RH (c), 2 weeks): <0.05 % area | Main Peak ([2]; 25° C. - 58% RH (c), 2 weeks): 99.78 % Area | Total Impurities ([2]; 25° C. - 58% RH (c), 2 weeks): 0.22 % area | XRPD ([2]; 25° C. - 58% RH (c), 2 weeks): Consistent with Tris salt (Grp B) | Content ([2]; 25° C. - 58% RH (o), 2 weeks): 101.0 % w/w | Impurity RRT 0.60 ([2]; 25° C. - 58% RH (o), 2 weeks): <0.05 % area | Impurity RRT 0.86 ([2]; 25° C. - 58% RH (o), 2 weeks): <0.05 % area | Impurity RRT 0.89 ([2]; 25° C. - 58% RH (o), 2 weeks): <0.05 % area | Impurity RRT 0.92 ([2]; 25° C. - 58% RH (o), 2 weeks): 0.13 % area | Impurity RRT 1.21 ([2]; 25° C. - 58% RH (o), 2 weeks): <0.05 % area | Main Peak ([2]; 25° C. - 58% RH (o), 2 weeks): 99.78 % Area | Total Impurities ([2]; 25° C. - 58% RH (o), 2 weeks): 0.22 % area | XRPD ([2]; 25° C. - 58% RH (o), 2 weeks): Consistent with Tris salt (Grp B) | Chemical or physical changes on storage ([2]; 25° C./58% RH, 40° C./75% RH (closed and open), 80° C./ambient RH (closed), 2 weeks): No significant chemical or physical changes were observed | Content ([2]; 40° C. - 75% RH (c), 2 weeks): 101.3 % w/w | Impurity RRT 0.60 ([2]; 40° C. - 75% RH (c), 2 weeks): <0.05 % area | Impurity RRT 0.86 ([2]; 40° C. - 75% RH (c), 2 weeks): <0.05 % area | Impurity RRT 0.89 ([2]; 40° C. - 75% RH (c), 2 weeks): <0.05 % area | Impurity RRT 0.92 ([2]; 40° C. - 75% RH (c), 2 weeks): 0.13 % area | Impurity RRT 1.21 ([2]; 40° C. - 75% RH (c), 2 weeks): <0.05 % area | Main Peak ([2]; 40° C. - 75% RH (c), 2 weeks): 99.75 % Area | Total Impurities ([2]; 40° C. - 75% RH (c), 2 weeks): 0.25 % area | XRPD ([2]; 40° C. - 75% RH (c), 2 weeks): Consistent with Tris salt (Grp B) | Content ([2]; 40° C. - 75% RH (o), 2 weeks): 101.1 % w/w | Impurity RRT 0.60 ([2]; 40° C. - 75% RH (o), 2 weeks): <0.05 % area | Impurity RRT 0.86 ([2]; 40° C. - 75% RH (o), 2 weeks): <0.05 % area | Impurity RRT 0.89 ([2]; 40° C. - 75% RH (o), 2 weeks): <0.05 % area | Impurity RRT 0.92 ([2]; 40° C. - 75% RH (o), 2 weeks): 0.13 % area | Impurity RRT 1.21 ([2]; 40° C. - 75% RH (o), 2 weeks): <0.05 % area | Main Peak ([2]; 40° C. - 75% RH (o), 2 weeks): 99.77 % Area | Total Impurities ([2]; 40° C. - 75% RH (o), 2 weeks): 0.23 % area | XRPD ([2]; 40° C. - 75% RH (o), 2 weeks): Consistent with Tris salt (Grp B) | Content ([2]; 80° C. (c), 2 weeks): 101.0 % w/w | Impurity RRT 0.60 ([2]; 80° C. (c), 2 weeks): <0.05 % area | Impurity RRT 0.86 ([2]; 80° C. (c), 2 weeks): <0.05 % area | Impurity RRT 0.89 ([2]; 80° C. (c), 2 weeks): <0.05 % area | Impurity RRT 0.92 ([2]; 80° C. (c), 2 weeks): 0.13 % area | Impurity RRT 1.21 ([2]; 80° C. (c), 2 weeks): <0.05 % area | Main Peak ([2]; 80° C. (c), 2 weeks): 99.75 % Area | Total Impurities ([2]; 80° C. (c), 2 weeks): 0.25 % area | XRPD ([2]; 80° C. (c), 2 weeks): Consistent with Tris salt (Grp B) | Content ([2]; Initial): 101.2 % w/w | Impurity RRT 0.60 ([2]; Initial): <0.05 % area | Impurity RRT 0.86 ([2]; Initial): <0.05 % area | Impurity RRT 0.89 ([2]; Initial): <0.05 % area | Impurity RRT 0.92 ([2]; Initial): 0.13 % area | Impurity RRT 1.21 ([2]; Initial): <0.05 % area | Main Peak ([2]; Initial): 99.81 % Area | Total Impurities ([2]; Initial): 0.19 % area | XRPD ([2]; Initial): Consistent with Tris salt (Grp B) | Hygroscopicity ([3]; 5 to 95% RH): non-hygroscopic | Weight change ([3]; between 5 and 95% RH): approximately 0.1% | Solubility description ([4]; FaSSGF after 1, 4 and 24 hours): practically insoluble | solubility at 1 h [4, 5]: 0.46 µg/mL | solubility at 4 h [4, 5]: 0.35 µg/mL | solubility at 24 h [4, 5]: 0.39 µg/mL | solubility ([4]; fasted-state simulated intestinal fluid (FaSSIF), pH 6.5, thermodynamic from solid, FaSSIF, before gradual decrease, read-out: Solubility, initial): ≥ 3000 µg/mL | solubility at 1 h [4, 6]: 1110 µg/mL | solubility at 4 h [4, 6]: 851 µg/mL | solubility at 24 h [4, 6]: 733 µg/mL | solubility kinetic ([4]; fed-state simulated intestinal fluid (FeSSIF), pH 5.8, thermodynamic from solid, FeSSIF, before precipitation, read-out: Kinetic solubility, initially in solution): ≥ 3000 µg/mL | solubility at 1 h [4, 7]: 99 µg/mL | solubility at 4 h [4, 7]: 96 µg/mL | solubility at 24 h [4, 7]: 95 µg/mL
